Data set [1] in a line: Curing of unsaturated polyester-styrene resin. As for the experimental part: An unsaturated polyester resin was made by reacting maleic anhydride (1.0 mole), phthalic anhydride (1.0 mole), and propylene glycol (2.2 moles) until an acid number of 45-50 was obtained. To this was added hydroquinone at a 0.013% concentration. Seven parts of this unsaturated polyester was diluted with 3 parts of monomeric styrene to obtain a homogeneous blend having a viscosity of 13.08 poise and a specific gravity of 1.14.
To 20 grams of this blend was added 0.128 gram of alpha-(tert.-butylazo)isobutyronitrile and the resultant composition placed in a constant temperature bath at 212° F. (100° C.). […] At 180° F. (82.2° C.), a peak exotherm of 381° F. (193.9° C.) was obtained in 13.3 minutes. The resultant cured materials were very hard.
The procedure of Example III was used at 212° F. (100° C.) and 240° F. (115.6° C.) where peak exotherms of 414° F. (212.2° C.) and 440° F. (226.7° C.) were obtained after 10.0 and 5.3 minutes respectively using 0.2 gram of the 1-tert.-butylazo-1-cyanocyclohexane. The resultant cured resins were very hard.
The curing procedure and resin are described in Example III.

For data set [2] the following is noted: for temperature at which it begins to evolve nitrogen: onset; for gas/nitrogen evolution or decomposition: room temperature or on melting.
A short description of data set [3]: Thermal decomposition half-life. The class given is physicochemical. The following applies: gas evolution technique, trichlorobenzene solvent. The method, then:
It produces 179 cc. of gas per gram at 110° C. The following half-life data have been determined:
The following half-life data have been determined by gas evolution technique using trichlorobenzene as the solvent: […]

The mark [4] stands for this setting: 180° F. (82.2° C.), loading not given.
Where [5] appears, read: 212° F. (100° C.), loading not given.
[6] abbreviates: 180° F. (82.2° C.), 1.0 weight per cent.
[7] abbreviates: 212° F. (100° C.), 1.0 weight per cent.
The mark [8] stands for this setting: 240° F. (115.6° C.), 1.0 weight per cent.
[9] abbreviates: 265° F. (129.4° C.), 1.0 weight per cent.

For the compound `CC(C)(C)N=NC(C)(C#N)C(C)(C)C` (stereo not shown) [Example IX, 2-tert.-butylazo-2-cyano-3,3-dimethylbutane], the “hardness of cured resin” value in data set [1] is listed as “very hard”. In addition, in data set [1] (setting [4]), the peak exotherm was found to be 388 ° F and the “time to peak exotherm” value came out at 10.4 min. For the same compound, in data set [1] (setting [5]), the peak exotherm is reported as 430 ° F and the “time to peak exotherm” value was 4.9 min. Moreover, the “temperature at which it begins to evolve nitrogen” value (from here on “temperature at which it begins”) in data set [2] stood at 95 °C.

Turning to `CCCNC(C)(CC(C)C)N=NC(C)(C)C` (stereo not shown) [Example LX, 2-t-Butylazo-2-(propylamino)-4-methylpentane], the “gas/nitrogen evolution or decomposition” value in data set [2] was “slowly evolves gas at room temperature”.

Consider `CC(C)CC(C#N)(CC(C)C)N=NC(C)(C)C` [Example VII, 4-tert.-butylazo-4-cyano-2,6-dimethylheptane], for which, in data set [1], the “hardness of cured resin” value is on record as “very hard”. Also, in data set [1] (setting [6]), the peak exotherm is 371 ° F and the “time to peak exotherm” value was found to be 2.8 min. The “temperature at which it begins” value in data set [2] is 70 °C.

In the case of `CC1CC(C)(C)CC(C#N)(N=NC(C)(C)C)C1` (stereo not shown) [Example VIII, 1-tert.-butylazo-1-cyano-3,3,5-trimethylcyclohexane], the “hardness of cured resin” value in data set [1] is reported as “very hard”. Moreover, in data set [1] (setting [6]), the peak exotherm is reported as 384 ° F and the “time to peak exotherm” value was determined as 9.4 min. In data set [2], the “temperature at which it begins” value was 100 °C.

In the case of `CC(C)(C#N)N=NC(C)(C)c1ccccc1` [Example XI, Alpha-(tert.-cumylazo)isobutyronitrile], the “hardness of cured resin” value in data set [1] is listed as “very hard”. Besides, in data set [1] (setting [6]), the peak exotherm stood at 378 ° F and the “time to peak exotherm” value came to 1.3 min. For the same compound, the “temperature at which it begins” value in data set [2] was determined as 55 °C.

In the case of `CC(C)(C)N=NC(C)(C#N)C1CC1` (stereo not drawn) [Example XII, Alpha-tert-butylazo-alpha-cyclopropylpropionitrile], the “hardness of cured resin” value in data set [1] is “very hard”. In data set [1] (setting [4]), the peak exotherm amounted to 403 ° F and the “time to peak exotherm” value worked out at 3.3 min. In data set [1] (setting [5]), the peak exotherm was found to be 420 ° F and the “time to peak exotherm” value was determined as 2.1 min. Moreover, in data set [2], the “temperature at which it begins” value turned out to be 75 °C.

In the case of `CC(C)(C)N=NC(N)=O` [Example XIII, tert.-butylazoformamide], the “t 1/2” value in data set [3] (110° C) amounted to 5.73 h; in data set [3] (120° C) it was 3.00 h; in data set [3] (130° C) it was 0.87 h; in data set [3] (150° C), 0.14 h. Besides, the “hardness of cured resin” value in data set [1] is “very hard”. Besides, the peak exotherm worked out at 407 ° F in data set [1] (setting [7]), 430 ° F in data set [1] (setting [8]) and 438 ° F in data set [1] (setting [9]). For the same compound, the “time to peak exotherm” value is 7.1 min in data set [1] (setting [7]), 5.9 min in data set [1] (setting [8]) and 4.5 min in data set [1] (setting [9]).

For `CC(C)OC(=O)N=NC(C)(C)c1ccccc1` [Example XVIII B, Isopropyl tert.-cumylazocarboxylate], in data set [2], the “temperature at which it evolves nitrogen” value was found to be 80 °C.

Take `CC(C)(C)N=NC(=O)c1ccccc1` [Example XX, Benzoyl tert.-butyldiimide]: the “hardness of cured resin” value in data set [1] is “hard”. Also, in data set [1] (setting [6]), the peak exotherm worked out at 233 ° F and the “time to peak exotherm” value is 10.0 min. For the same compound, in data set [2], the “temperature at which it evolves nitrogen” value came to 25 °C.

In the case of `CC(C)(C)N=NC(C)(C)C(N)=O` [Example XXV, 2-t-butylazo-2-carbamylpropane], in data set [1] (setting [8]), the peak exotherm was found to be 442 ° F and the “time to peak exotherm” value turned out to be 5.7 min. For the same compound, the “temperature at which it evolves nitrogen” value in data set [2] is “above 120 °C”.

With `CC(C)CC(C)(N=NC(C)(C)C)SC#N` (stereo not shown) [LI, 2-t-Butylazo-2-thiocyanato-4-methylpentane], in data set [1] (bath 115° C.), the “Barcol Hardness” value came to 45, the “Minutes to Peak Exotherm” value came out at 3.4 min and the “peak exotherm” value is given as 438 ° F.

As to `CC(C)CC(C)(N=NC(C)(C)C)OC#N` (stereo not shown) [LIII, 2-t-Butylazo-2-cyanato-4-methylpentane], in data set [1] (bath 115° C.), the “Barcol Hardness” value stood at 45, the “Minutes to Peak Exotherm” value was found to be 3.8 min and the “peak exotherm” value turned out to be 412 ° F.

Take `CC(C)CC(C)(N=NC(C)(C)C)OC(C)(C)C` (stereo not shown) [LIV, 2-t-Butylazo-2-t-butoxy-4-methylpentane]: in data set [1] (bath 115° C.), the “Barcol Hardness” value amounted to 20, the “Minutes to Peak Exotherm” value is 2.8 min and the “peak exotherm” value is given as 358 ° F.

With `CC(C)CC(C)(N=NC(C)(C)C)OOC(C)(CC(C)C)N=NC(C)(C)C` (stereo not shown) [LVIII, Di[1-(t-butylazo)-1,3-dimethylbutyl] Peroxide], the “gas/nitrogen evolution or decomposition” value in data set [2] was “began to gas rapidly upon reaching room temperature”.

As for `CC(C)CC(C)(N=NC(C)(C)C)NNC(C)(C)C` (stereo not shown) [LXIX, 2-t-Butylazo-2-t-butylhydrazo-4-methylpentane], in data set [1] (bath 82° C.), the “Barcol Hardness” value is recorded as 40, the “Minutes to Peak Exotherm” value stood at 1.4 min and the “peak exotherm” value amounted to 275 ° F. Further, the “gas/nitrogen evolution or decomposition” value in data set [2] is reported as “evolves nitrogen at room temperature”.

Consider `CC(C)CC(C)(N=NC(C)(C)C)OOC(C)(C)CCC(C)(C)OOC(C)(CC(C)C)N=NC(C)(C)C` (stereo not shown) [LXV, 2,2,5,8,8,11,11,14,17,17-decamethyl-5,14-diisobutyl-Δ^3,15-3,4,15,16-tetraaza-6,7,12,13-tetraoxaoctadecadiene], for which, in data set [2], the “temperature at which it evolves nitrogen” value came to 30 °C.

On to `CC(C)CC(C)(N=NC(C)(C)C)NNc1ccccc1` (stereo not shown) [LXVIII, 2-t-Butylazo-2-phenylhydrazo-4-methylpentane], for which, in data set [2], the “gas/nitrogen evolution or decomposition” value is “decomposes rapidly at room temperature”.

Take `CNC(=O)N=NC(C)(C)C` [XIV, tert.-butylazo-N-methylformamide]: the “hardness of cured resin” value in data set [1] is recorded as “very hard”. In data set [1] (setting [9]), the peak exotherm came out at 428 ° F and the “time to peak exotherm” value was 17.1 min.

As to `CC(C)CC(C)(N=NC(C)(C)C)N=[N+]=[N-]` (stereo not shown) [XLII, 2-t-butylazo-2-azido-4-methylpentane], in data set [1] (bath 100° C.), the “Barcol Hardness” value was found to be 40, the “Minutes to Peak Exotherm” value came to 5.3 min and the “peak exotherm” value came to 418 ° F.

`C=C(C)N=NC(C)(C)C` [XXII, 2(-tert.-butylazo)propene]: in data set [2], the “gas/nitrogen evolution or decomposition” value is “evolves nitrogen at room temperature”.

Consider `CC(C)(C)N=NC1(C(N)=O)CCCCC1` [XXIV, 1-tert. butylazo-1-carbamylcyclohexane], for which, in data set [1] (setting [8]), the peak exotherm came out at 444 ° F and the “time to peak exotherm” value was determined as 6.8 min. In data set [2], the “temperature at which it evolves nitrogen” value is “above 120 °C”.

Regarding `COC(C)(N=NC(C)(C)C)c1ccccc1` (stereo not shown) [XXXIX, 1-t-butylazo-1-methoxy-1-phenylethane], in data set [1] (bath 82° C.), the “Barcol Hardness” value was determined as 40, the “Minutes to Peak Exotherm” value came out at 6.6 min and the “peak exotherm” value came to 371 ° F.

As to `COC(C)(CC(C)C)N=NC(C)(C)C` (stereo not shown) [XXXVI, 2-t-butylazo-2-methoxy-4-methylpentane], in data set [1] (bath 115° C.), the “Barcol Hardness” value was determined as 40, the “Minutes to Peak Exotherm” value amounted to 7.2 min and the “peak exotherm” value came to 400 ° F.

The values are drawn from patent publication US4007165A (priority 1974, dated 1977).
